Counter-ions that a name gives are not always drawn. Like-named read-outs stand apart in the source and are kept apart here.
Tested on: convulsion induced by picrotoxine in mice
Assay: Protection against picrotoxine-induced convulsion (suppression of the tonic extension phase)
Type: in vivo, male Swiss mice
Settings: for responders at 50 mg/kg / responders at 100 mg/kg / ED50: Mus musculus; for responders at 50 mg/kg: 0.5 h, read-out: i.p.: % prot. (percentage of protected animals), 50 mg/kg i.p., picrotoxine 24 mg/kg i.p. 30 min later; for i.p.: % prot. (percentage of protected animals): 50 mg/kg i.p., picrotoxine 24 mg/kg i.p. 30 min later; for responders at 100 mg/kg: 1 h, read-out: p.o.: % prot. (percentage of protected animals), 100 mg/kg p.o., picrotoxine 24 mg/kg i.p. 60 min later
Description: The psychotropic properties of the compounds have been determined by the protection of the induced convulsion by picrotoxine for mice, which is achieved by the method derived from that of Krall et al., "Epilepsia", 1978, 19, p. 409-428.
The administration of picrotoxine caused a convulsive crisis in the animal characterised by a myoclonic extension syndrome followed by the extension of the limbs causing the animal to die. Certain substances, particularly those active on the complex GABA/benzodiazepines/Cl-ionophore makes it possible to protect the animals from this convulsive crisis.
In practice the study is carried out on batches of 10 male "Swiss" mice weighing approximately 20 g, which are administered with the product to be studied in aqueous solution either by intraperitoneal route (i.p.) at the rate of 50 mg/kg and in a volume of 0.2 ml of solution per animal, or by oral route (p.o) in a volume of 2.0 ml of solution per animal.
An injection of a solution of picrotoxine at the rate of 24 mg/kg in a volume of 0.2 ml per animal is then administered by interperitoneal route, either 30 minutes after administering the product by interperitoneal route or 60 minutes after administering the product by oral route. The dose of the product injected causing a clonic crisis, which results in untreated animals dying. The suppression of the extension tonic phase in the animals treated under the conditions of the test is observed. The results are expressed:
either in percentages of protected animals of this phase to the reaction of 50 mg/kg of the compound of the study administered by i.p. route or 100 mg/kg by p.o route,
or in DE50 for each of these routes, which is the efficient dosage of the test compound expressed in mg/kg protecting 50% of the animals of this extension phase. The significant value of the results being generally indicated in the following manner:
* Significant result at p<0.05
** Significant result at p<0.01
*** Significant highly significant at p<0.001.

[1] = ip, * p<0.05, ** p<0.01, *** p<0.001
[2] = * p<0.05, ** p<0.01, *** p<0.001
[3] = po, * p<0.05, ** p<0.01, *** p<0.001

Compound | responders at 50 mg/kg [1] | responders at 100 mg/kg [3] | also measured
CCC(N)(CC=Cc1ccc(Cl)c(Cl)c1)c1ccccc1 (stereo not drawn) [Example 10, a-(3',4'-dichloro) cinnamyl-a-ethyl-benzylamine] | 90% | – | –
CCC(N)(CC=Cc1ccccc1)c1ccccc1 (single isomer, unassigned) [Example 16B, (+) tartrate of (-)a-cinnamyl-a-ethyl benzylamine] | – | – | i.p.: % prot. (percentage of protected animals) [2]: 100%; p.o.: % prot. (percentage of protected animals) (100 mg/kg p.o., picrotoxine 24 mg/kg i.p. 60 min later, * p<0.05, ** p<0.01, *** p<0.001): 100%
CCC(N)(CC=Cc1ccccc1)c1ccc(Cl)c(Cl)c1 (stereo not drawn) [Example 5, a-cinnamyl-a-ethyl-3,4 dichlorobenzylamine] | 50% | – | –
CCC(CC=Cc1ccccc1)(c1ccc(Cl)c(Cl)c1)N(C)C (stereo not drawn) [Example 32, a-cinnamyl-N,N-dimethyl-a-ethyl-(3,4-dichloro)benzylamine] | 50% | 60% | –
CCCCCC(CC=Cc1ccccc1)(c1ccccc1)N(C)C (stereo not drawn) [Example 42, a-cinnamyl-N,N-dimethyl-a-pentyl-benzylamine] | – | – | ED50 (po, read-out: p.o.: DE50): 65 mg/kg
CCC(CC=Cc1ccccc1)(NC)c1ccccc1 (stereo not drawn) [Example 18, a-cinnamyl-a-ether-N-methyl-benzylamine] | 80% | 100% | –
CCC(N)(CC=Cc1ccccc1)c1ccccc1 (stereo not drawn) [Example 3, a-cinnamyl-a-ethyl-benzylamine] | 80% | 100% | –
CCC(CC=Cc1ccccc1)(NC)c1cccc(C(F)(F)F)c1 (stereo not drawn) [Example 21, a-cinnamyl-a-ethyl-N-methyl-(m.trifluoromethyl)benzylamine] | 90% | 70% | –
C=CCN(C)C(CC)(CC=Cc1ccccc1)c1ccccc1 (stereo not drawn) [Example 38, N-allyl-a-cinnamyl-a-ethyl-N-methylbenzylamine] | 80% | – | –
CCC(N)(CC=Cc1ccccc1)c1cccc(C(F)(F)F)c1 (stereo not drawn) [Example 7, a-cinnamyl-a-ethyl-(m.trifluoromethyl)benzylamine] | 100% | – | –
CCCN(C)C(CC)(CC=Cc1ccccc1)c1ccccc1 (stereo not drawn) [Example 47, a-cinnamyl-a-ethyl-N-methyl-N-propylbenzylamine] | – | – | ED50 (ip, read-out: i.p.: DE50): 58.2 mg/kg; ED50 (po, read-out: p.o.: DE50): 65 mg/kg
CCC(CC=Cc1cccs1)(c1ccco1)N(C)C (stereo not drawn) [Example 61, N,N-dimethyl-a-ethyl-a-[3-(2-thienyl)-2-propenyl]-2-furfurylamine] | 50% | – | –
CCC(CC=Cc1ccccc1)(c1cccs1)N(C)C (stereo not drawn) [Example 62, a-cinnamyl-N,N-dimethyl-a-ethyl-2-thienylmethylamine] | – | 80% | –
CCC(CC=Cc1ccccc1)(NC)c1ccccc1 (single isomer, unassigned; (+)) [Example 29, (+) a-cinnamyl-a-ethyl-N-methyl benzylamine] | – | – | i.p.: % prot. (percentage of protected animals) [2]: 100%
CCC(N)(CC=Cc1ccc(Cl)c(Cl)c1)c1ccc(OC)cc1 (stereo not drawn) [Example 13] | – | 50% | ED50 (ip, read-out: i.p.: DE50): 23.2 mg/kg
CCC(CC=Cc1ccccc1)(c1ccc(C(F)(F)F)cc1)N(C)C (stereo not drawn) [Example 34, a-cinnamyl-N,N-dimethyl-a-ethyl-p.trifluoromethylbenzylamine] | 80% | 60% | –
CCC(CC=Cc1ccccc1)(c1ccccc1)N(C)C (stereo not drawn) [Example 30, a-cinnamyl-N,N-dimethyl-a-ethyl-benzylamine] | 100% | 100% | –
CCC(CC=Cc1ccco1)(c1cccs1)N(C)C (stereo not drawn) [Example 64, N,N-dimethyl-a-ethyl-a-[3-(2-furyl)-2-propenyl]-2-thienylmethylamine] | 70% | 50% | –
CCC(CC=Cc1cccs1)(c1ccccc1)N(C)C (stereo not drawn) [Example 55, N,N-dimethyl-a-ethyl-a-[30(2-thienyl)-2-propenyl]-benzylamine] | 70% | 70% | –
CCC(N)(CC=Cc1ccccc1)c1ccc(Cl)cc1 (single isomer, unassigned; (+)) [Example 17A, (+) a-cinnamyl-a-ethyl-p.chlorobenzylamine] | 80% | 50% | –

Compound | responders at 50 mg/kg [1] | responders at 100 mg/kg [3] | also measured
CCC(N)(CC=Cc1ccc(Cl)c(Cl)c1)c1ccc(C)cc1 (stereo not drawn) [Example 12, a-(3',4'-dichloro)cinnamyl-a-ethyl-p.methylbenzylamine] | – | – | ED50 (ip, read-out: i.p.: DE50): 37.3 mg/kg; ED50 (po, read-out: p.o.: DE50): 50 mg/kg
CCC(C[C@@H]1C[C@H]1c1ccccc1)(c1ccsc1)N(C)C (relative stereo) [Example 68, trans N,N-dimethyl-a-ethyl-a-(2-phenyl-1-cyclopropylmethyl)-3-trienylmethylamine] | 100% | – | –
CCC(CC=Cc1ccccc1)(c1ccccc1)N(C)C (single isomer, unassigned; (+)) [Example 50, (+) a-cinnamyl-N,N-dimethyl-a-ethyl-benzylamine] | – | – | i.p.: % prot. (percentage of protected animals) [2]: 100%
CCC(CC=Cc1ccccc1)(c1ccco1)N(C)C (stereo not drawn) [Example 59, a-cinnamyl-N,N-dimethyl-a-ethyl-2-furfurylamine] | 90% | 100% | –
CCC(CC=Cc1ccccc1)(NC)c1ccc(Cl)c(Cl)c1 (stereo not drawn) [Example 20, a-cinnamyl-a-ethyl-N-methyl-3,4-dichlorobenzylamine] | – | 80% | –
CC(N)(CC=Cc1ccc(Cl)c(Cl)c1)c1ccccc1 (stereo not drawn) [Example 9, a-(3',4'-dichloro) cinnamyl-a-methylbenzylamine] | 100% | – | –
CCC(C[C@@H]1C[C@H]1c1ccccc1)(c1cccs1)N(C)C (relative stereo) [Example 63, trans N,N-dimethyl-a-ethyl-a-(2-phenyl-1-cyclopropylmethyl)-2-thienylmethylmaine] | 60% | 50% | –
CN(C)C(C)(CC=Cc1ccc(Cl)c(Cl)c1)c1ccccc1 (stereo not drawn) [Example 48, a-(3.4 dichloro)cinnamyl-N,N-dimethyl-a-methyl-benzylamine] | 90% | – | –
CC(C)C(N)(CC=Cc1ccc(Cl)c(Cl)c1)c1ccccc1 (stereo not drawn) [Example 11, a-(3',4'-dichloro)cinnamyl-a-isopropylbenzylamine] | 70% | 100% | –
CCC(N)(CC=Cc1ccccc1)c1ccccc1 (single isomer, unassigned) [Example 16A, (-) tartrate of (+) a-cinnamyl-a-ethyl-benzylamine] | 90% | 100% | –
CCC(CC=Cc1ccccc1)(NC)c1ccc(OC)cc1 (stereo not drawn) [Example 22, a-cinnamyl-a-ethyl-N-methyl-p.methoxybenzylamine] | 80% | 100% | –
CCC(CC=Cc1ccccc1)(c1ccsc1)N(C)C (stereo not drawn) [Example 67, a-cinnamyl-N,N-dimethyl-a-ethyl-3-thienylmethylamine] | 70% | 100% | –
CN(C)C(C)(CC=Cc1ccccc1)c1ccccc1 (stereo not drawn) [Example 40, a-cinnamyl-N,N-dimethyl-a-methyl-benzylamine] | – | – | ED50 (ip, read-out: i.p.: DE50): 16.6 mg/kg; ED50 (po, read-out: p.o.: DE50): 37.7 mg/kg
CCC(CC=Cc1ccsc1)(c1ccccc1)N(C)C (stereo not drawn) [Example 56, N,N-dimethyl-a-ethyl-a-[30(3-thienyl)-2-propenyl]-benzylamine] | 70% | 80% | –
CC(C)C(CC=Cc1ccccc1)(c1ccccc1)N(C)C (stereo not drawn) [Example 41, a-cinnamyl-N,N-dimethyl-a-isopropylbenzylamine] | – | – | ED50 (po, read-out: p.o.: DE50): 78.4 mg/kg
CCC(C[C@@H]1C[C@H]1c1ccccc1)(c1cc(OC)c(OC)c(OC)c1)N(C)C (relative stereo) [Example 54, trans N,N-dimethyl-a-ethyl-a-(2-phenyl-1-cyclopropylmethyl)-3,4,5-trimethoxybenzylamine] | 70% | – | –
CCC(CC=Cc1ccccc1)(NC)c1ccccc1 (single isomer, unassigned; (-)) [Example 28, (-) a-cinnamyl-a-ethyl-N-methyl benzylamine] | 100% | 100% | –
CCC(C[C@@H]1C[C@H]1c1ccccc1)(c1ccco1)N(C)C (relative stereo) [Example 60, trans N,N-dimethyl-a-ethyl-a-(2-phenyl-1-cyclopropylmethyl)-2-furfurylamine] | 80% | 60% | –
CCC(CC=Cc1ccsc1)(c1ccsc1)N(C)C (stereo not drawn) [Example 70, N.N-dimethyl-a-ethyl-a-[3-(3-thienyl)-2-propenyl]-3-thienylmethylamine] | 80% | 100% | –
